# Experimental data published in patent US8716289B2, “Carbamate derivatives of alkyl-heterocycles, preparation thereof and therapeutic use thereof” (Sanofi, priority 2008, dated 2014).
row,Structure (SMILES),melting point [°C]
1,"CNC(=O)c1cc(COC(=O)NC2CCN(c3ccc([N+](=O)[O-])cc3C(F)(F)F)CC2)on1 [Compound 76, 3-methylcarbamoylisoxazol-5-ylmethyl [1-(4-nitro-2-trifluoromethylphenyl)piperidin-4-yl]carbamate]",156 to 158
2,CC(C)CC(OC(=O)NCCC1CCN(c2ccc3cc(Cl)ccc3n2)CC1)c1ccoc1 (racemic),97 to 99
3,"NC(=O)c1cc(COC(=O)NCCC2CCN(c3cccc(-c4ccc(F)cc4)n3)CC2)on1 [Compound 24, 3-carbamoylisoxazol-5-ylmethyl 2-[6′-(4-fluorophenyl)-3,4,5,6-tetrahydro-2H-[1,2′]bipyridinyl-4-yl]ethylcarbamate]",172 to 174
4,"CCOC(=O)c1cc(COC(=O)NCC2(F)CCN(c3ccc4cc(Cl)ccc4n3)CC2)on1 [Compound 56, ethyl 5-[1-(6-chloroquinolin-2-yl)-4-fluoropiperidin-4-ylmethylcarbamoyloxymethyl]isoxazole-3-carboxylate]",132 to 134
5,"NC(=O)c1cc(COC(=O)NCCC2CN(c3nccc(C(F)(F)F)n3)C2)on1 [Compound 82, 3-carbamoylisoxazol-5-ylmethyl {2-[1-(4-trifluoromethylpyrimidin-2-yl)azetidin-3-yl]ethyl}carbamate]",163 to 165
6,"CC(C)c1nc(COC(=O)NCCC2CCN(c3ccc(-c4ccc(F)cc4)cn3)CC2)no1 [Compound 11, 5-isopropyl[1,2,4]oxadiazol-3-ylmethyl 2-[5′-(4-fluorophenyl)-3,4,5,6-tetrahydro-2H-[1,2′]bipyridinyl-4-yl]-ethylcarbamate]",112 to 113
7,"O=C(NCCC1CCN(c2ccc3cc(Cl)ccc3n2)CC1)OCc1cc(C(=O)O)no1 [Compound 53, 5-{2-[1-(6-chloroquinolin-2-yl)piperidin-4-yl]ethylcarbamoyloxymethyl}isoxazole-3-carboxylic acid]",180 to 182
8,CC(C)CC(OC(=O)NCCC1CCN(c2cccc(-c3ccc(F)cc3)n2)CC1)c1ccoc1 (racemic),101 to 103
9,"CNC(=O)c1cc(COC(=O)NC2CCN(c3cnc4cc(Cl)ccc4n3)CC2)on1 [Compound 77, 3-methylcarbamoylisoxazol-5-ylmethyl [1-(6-chloroquinoxalin-2-yl)piperidin-4-yl]carbamate]",232 to 234
10,"CN(C)C(=O)c1cc(COC(=O)NCCC2CCN(c3cccc(-c4ccc(F)cc4)n3)CC2)on1 [Compound 27, 3-dimethylcarbamoylisoxazol-5-ylmethyl 2-[6′-(4-fluorophenyl)-3,4,5,6-tetrahydro-2H-[1,2′]bipyridinyl-4-yl]-ethylcarbamate]",81 to 83
11,"CC(C)(C)c1nnc(COC(=O)NCCC2CCN(c3ccc(-c4ccc(F)cc4)cn3)CC2)s1 [Compound 10, 5-tert-butyl[1,3,4]thiadiazol-2-ylmethyl 2-[5′-(4-fluorophenyl)-3,4,5,6-tetrahydro-2H-[1,2′]bipyridinyl-4-yl]-ethylcarbamate]",139 to 140
12,"CNC(=O)c1cc(COC(=O)NCCC2CCN(c3cnc(-c4ccc(F)cc4)cn3)CC2)on1 [Compound 69, 3-methylcarbamoylisoxazol-5-ylmethyl (2-{1-[5-(4-fluorophenyl)pyrazin-2-yl]piperidin-4-yl}ethyl)carbamate]",181.5 to 183.5
13,"CCOC(=O)c1cc(COC(=O)NCC2(F)CCN(c3nccc(C(F)(F)F)n3)CC2)on1 [Compound 51, ethyl 5-[4-fluoro-1-(4-trifluoromethylpyrimidin-2-yl)-piperidin-4-ylmethylcarbamoyloxymethyl]isoxazole-3-carboxylate]",136 to 138
14,"NC(=O)c1cc(COC(=O)NCCC2CCN(c3ccc4cc(F)ccc4n3)CC2)on1 [Compound 23, 3-carbamoylisoxazol-5-ylmethyl 2-[1-(6-fluoroquinolin-2-yl)piperidin-4-yl]ethylcarbamate]",200 to 202
15,"O=C(NCCC1CCN(c2ccc3cc(Cl)ccc3n2)CC1)OCc1nc(-c2cccc(F)c2)no1 [Compound 16, 3-(3-fluorophenyl)[1,2,4]oxadiazol-5-ylmethyl 2-[1-(6-chloroquinolin-2-yl)piperidin-4-yl]ethylcarbamate]",134 to 136
16,"CNC(=O)c1cc(COC(=O)NCCC2(CC(C)C)CCN(c3ccc([N+](=O)[O-])cc3C(F)(F)F)CC2)on1 [Compound 66, 3-methylcarbamoylisoxazol-5-ylmethyl {2-[4-isobutyl-1-(4-nitro-2-trifluoromethylphenyl)piperidin-4-yl]ethyl}carbamate]",145 to 147
17,"CNC(=O)c1cc(COC(=O)NCCC2(C)CCN(c3nccc(C(F)(F)F)n3)CC2)on1 [Compound 72, 3-methylcarbamoylisoxazol-5-ylmethyl {2-[4-methyl-1-(4-trifluoromethylpyrimidin-2-yl)piperidin-4-yl]ethyl}carbamate]",160 to 162

row,Structure (SMILES),melting point [°C]
1,"O=C(NCCC1CCN(c2ccc3cc(Cl)ccc3n2)CC1)OCc1nc(-c2ccc(F)cc2)no1 [Compound 15, 3-(4-fluorophenyl)[1,2,4]oxadiazol-5-ylmethyl 2-[1-(6-chloroquinolin-2-yl)piperidin-4-yl]ethylcarbamate]",160 to 162
2,"CNC(=O)c1cc(COC(=O)NC2CCN(c3nccc(C(F)(F)F)n3)CC2)on1 [Compound 70, 3-methylcarbamoylisoxazol-5-ylmethyl [1-(4-trifluoromethylpyrimidin-2-yl)piperidin-4-yl]carbamate]",197 to 199
3,"NC(=O)c1cc(COC(=O)NCCC2CCN(c3ccc(-c4cccc(F)c4)cn3)CC2)on1 [Compound 28, 3-carbamoylisoxazol-5-ylmethyl 2-[5′-(3-fluorophenyl)-3,4,5,6-tetrahydro-2H-[1,2′]bipyridinyl-4-yl]ethylcarbamate]",172 to 176
4,"CC(C)c1nc(COC(=O)NCC2CCN(c3nccc(C(F)(F)F)n3)CC2)no1 [Compound 55, 5-isopropyl[1,2,4]oxadiazol-3-ylmethyl [1-(4-trifluoromethylpyrimidin-2-yl)piperidin-4-yl]methylcarbamate]",104 to 106
5,"CN(C)C(=O)c1cc(COC(=O)NCCC2CCN(c3ccc(-c4ccc(F)cc4)cn3)CC2)on1 [Compound 30, 3-dimethylcarbamoylisoxazol-5-ylmethyl 2-[5′-(4-fluorophenyl)-3,4,5,6-tetrahydro-2H-[1,2′]bipyridinyl-4-yl]-ethylcarbamate]",149 to 151
6,"CNC(=O)c1cc(COC(=O)NCCC2CCN(c3cccc(-c4ccc(F)cc4)n3)CC2)on1 [Compound 22, 3-methylcarbamoylisoxazol-5-ylmethyl 2-[6′-(4-fluoro-phenyl)-3,4,5,6-tetrahydro-2H-[1,2′]bipyridinyl-4-yl]-ethylcarbamate]",155.5 to 157.5
7,"O=C(NCCC1CCN(c2ccc3cc(Cl)ccc3n2)CC1)OCc1nsc(-c2ccc(Cl)cc2)n1 [Compound 17, 5-(4-chlorophenyl)[1,2,4]thiadiazol-3-ylmethyl 2-[1-(6-chloroquinolin-2-yl)piperidin-4-yl]ethylcarbamate]",191 to 193
8,"O=C(NCCC1CCN(c2ccc3cc(Cl)ccc3n2)CC1)OCc1nc(-c2ccc(Cl)cc2)no1 [Compound 4, 3-(4-chlorophenyl)[1,2,4]oxadiazol-5-ylmethyl 2-[1-(6-chloroquinolin-2-yl)piperidin-4-yl]ethylcarbamate]",134 to 136
9,"CNC(=O)c1cc(COC(=O)NCCC2CCN(c3ccc(-c4ccc(F)cc4)cn3)CC2)on1 [Compound 26, 3-methylcarbamoylisoxazol-5-ylmethyl 2-[5′-(4-fluorophenyl)-3,4,5,6-tetrahydro-2H-[1,2′]bipyridinyl-4-yl]-ethylcarbamate]",191 to 193
10,"O=C(NCCC1CCN(c2ccc3cc(Cl)ccc3n2)CC1)OCc1csnn1 [Compound 18, [1,2,3]thiadiazol-4-ylmethyl 2-[1-(6-chloroquinolin-2-yl)piperidin-4-yl]ethylcarbamate]",146 to 148
11,"CCOC(=O)c1cc(COC(=O)NCCC2CCN(c3ccc4cc(Cl)ccc4n3)CC2)on1 [Compound 71, ethyl 5-{2-[1-(6-chloroquinolin-2-yl)piperidin-4-yl]-ethylcarbamoyloxymethyl}isoxazole-3-carboxylate]",117 to 119
12,"CNC(=O)c1cc(COC(=O)NCCC2CN(c3nccc(C(F)(F)F)n3)C2)on1 [Compound 83, 3-methylcarbamoylisoxazol-5-ylmethyl {2-[1-(4-trifluoromethylpyrimidin-2-yl)azetidin-3-yl]ethyl}carbamate]",155 to 157
13,"NC(=O)c1coc(COC(=O)NCCC2CCN(c3ccc(-c4ccc(F)cc4)cn3)CC2)n1 [Compound 21, 4-carbamoyloxazol-2-ylmethyl 2-[5′-(4-fluorophenyl)-3,4,5,6-tetrahydro-2H-[1,2′]bipyridinyl-4-yl]ethylcarbamate]",206 to 208
14,"CNC(=O)c1cc(COC(=O)NCC2(F)CCN(c3nccc(C(F)(F)F)n3)CC2)on1 [Compound 57, 3-methylcarbamoylisoxazol-5-ylmethyl [4-fluoro-1-(4-trifluoromethylpyrimidin-2-yl)piperidin-4-yl]methylcarbamate]",187 to 189
15,"CN(C)C(=O)c1cc(COC(=O)NCCC2CCN(c3ccc4cc(Cl)ccc4n3)CC2)on1 [Compound 31, 3-dimethylcarbamoylisoxazol-5-ylmethyl 2-[1-(6-chloroquinolin-2-yl)piperidin-4-yl]ethylcarbamate]",114 to 116
16,"Cc1onc(-c2ccccc2)c1COC(=O)NCCC1CCN(c2ccc3cc(Cl)ccc3n2)CC1 [Compound 6, 5-methyl-3-phenylisoxazol-4-ylmethyl 2-[1-(6-chloroquinolin-2-yl)piperidin-4-yl]ethylcarbamate]",110 to 112
17,"NC(=O)c1cc(COC(=O)NC2CCCN(c3nccc(C(F)(F)F)n3)CC2)on1 (racemic) [Compound 74, 3-carbamoylisoxazol-5-ylmethyl (±)[1-(4-trifluoromethylpyrimidin-2-yl)azepan-4-yl]carbamate]",171 to 173
